# In patent publication US9784740B2 (priority 2013, dated 2017):
# pEC50: −log10 of the molar value. Where “and” joins values, the source holds several entries; their conditions need not be identical. Equal values may be shown once. Entries after “also recorded” stand apart in the source; their conditions may differ. Read-outs that look alike come from different tables or passages of the source.
# Key:
# [1] = target: T1, mu-opioid receptor (OPRM1) (Homo sapiens, UniProt P35372); assay: cell-based
# [2] = target: T1, mu-opioid receptor (OPRM1); assay: β-arrestin recruitment assay (PathHunter) in U2OS-OPRM1 cells; details: for Description (PAM efficacy class / SAM): U2OS-OPRM1, β-arrestin PAM and SAM detection modes; for β-arrestin recruitment, agonist detection mode (compound alone): U2OS-OPRM1 cells, no orthosteric agonist
# [3] = target: T2, mu-opioid receptor (C6mu membranes) (Rattus norvegicus, UniProt P33535); assay: [35S]GTPγS binding in C6mu cell membranes; assay type: biochemical; details: for agonist activity of modulator in [35S]GTPγS binding: modulator alone
# T2 construct: expressed in transfected cells; host or cells: C6 glioma cells (membranes)
# [4] = target: T3, delta opioid receptor (OPRD1) (Homo sapiens, UniProt P41143); assay: β-arrestin recruitment assay (PathHunter) in U2OS-OPRD1 cells; assay type: cell-based; details: for β-arrestin recruitment, agonist detection mode: U2OS-OPRD1, no leu-enkephalin; for β-arrestin recruitment, PAM detection mode: U2OS-OPRD1, ~EC10 (0.4 nM) leu-enkephalin
# T3 construct: host or cells: U2OS (PathHunter U2OS-OPRD1)
# [5] = target: T4, mu-opioid receptor (mouse brain membranes) (Mus musculus, UniProt P42866); assay: [35S]GTPγS binding in mouse brain membranes; assay type: biochemical
# T4 construct: membranes from a physiologically relevant tissue with endogenous levels of receptor and G-protein; from tissue; host or cells: mouse whole brain minus cerebellum, membrane homogenate
# [6] = target: T2, mu-opioid receptor (C6mu membranes); assay type: binding
# [7] = target: T2, mu-opioid receptor (C6mu membranes); assay: DAMGO competition binding with [3H]diprenorphine in C6mu membranes; details: 10 uM modulator
# [8] = target: T1, mu-opioid receptor (OPRM1)
# [9] = target: T5, human mu opioid receptors (Homo sapiens, UniProt P35372); assay: cell-based
# [10] = target: T5, human mu opioid receptors; assay: Inhibition of forskolin-stimulated cAMP accumulation in CHO-mu cells; details: for pEC50: mean (95% CI)
# [11] = target: T5, human mu opioid receptors
# [12] = C6mu membranes, 10 uM modulator
# T5 sequence (P35372 whole entry): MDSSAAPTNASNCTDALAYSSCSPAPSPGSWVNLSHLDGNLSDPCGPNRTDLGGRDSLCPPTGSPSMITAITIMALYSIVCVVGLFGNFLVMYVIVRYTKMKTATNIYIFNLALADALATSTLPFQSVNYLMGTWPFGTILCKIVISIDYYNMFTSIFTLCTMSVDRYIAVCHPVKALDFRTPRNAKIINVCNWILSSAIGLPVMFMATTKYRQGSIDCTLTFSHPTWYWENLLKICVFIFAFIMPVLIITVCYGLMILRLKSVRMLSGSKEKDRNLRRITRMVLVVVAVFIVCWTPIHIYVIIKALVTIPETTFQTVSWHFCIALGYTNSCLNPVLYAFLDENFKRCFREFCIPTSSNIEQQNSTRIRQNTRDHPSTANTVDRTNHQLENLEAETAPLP
# T1 sequence (P35372 whole entry): as above
# T3 sequence (P41143 whole entry): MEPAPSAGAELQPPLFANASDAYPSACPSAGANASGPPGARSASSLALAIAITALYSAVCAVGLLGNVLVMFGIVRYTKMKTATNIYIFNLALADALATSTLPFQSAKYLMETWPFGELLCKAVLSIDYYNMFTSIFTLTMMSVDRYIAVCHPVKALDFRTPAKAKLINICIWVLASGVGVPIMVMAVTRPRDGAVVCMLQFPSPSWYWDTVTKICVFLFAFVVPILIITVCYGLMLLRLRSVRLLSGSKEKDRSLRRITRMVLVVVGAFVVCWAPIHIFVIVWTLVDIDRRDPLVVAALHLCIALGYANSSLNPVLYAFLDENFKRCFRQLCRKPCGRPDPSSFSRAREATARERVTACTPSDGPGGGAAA
# T4 sequence (P42866 whole entry): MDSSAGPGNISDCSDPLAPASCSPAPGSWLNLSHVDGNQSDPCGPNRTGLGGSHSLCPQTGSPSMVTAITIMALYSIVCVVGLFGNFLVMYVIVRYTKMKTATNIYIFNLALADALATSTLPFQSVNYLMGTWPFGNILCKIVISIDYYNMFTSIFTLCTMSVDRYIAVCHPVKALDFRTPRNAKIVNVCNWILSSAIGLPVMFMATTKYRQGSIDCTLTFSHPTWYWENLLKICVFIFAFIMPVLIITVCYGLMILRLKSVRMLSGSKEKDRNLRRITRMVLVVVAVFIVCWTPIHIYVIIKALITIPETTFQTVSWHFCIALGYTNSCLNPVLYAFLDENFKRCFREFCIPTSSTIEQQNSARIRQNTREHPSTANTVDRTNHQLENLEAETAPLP
# T2 sequence (P33535 whole entry): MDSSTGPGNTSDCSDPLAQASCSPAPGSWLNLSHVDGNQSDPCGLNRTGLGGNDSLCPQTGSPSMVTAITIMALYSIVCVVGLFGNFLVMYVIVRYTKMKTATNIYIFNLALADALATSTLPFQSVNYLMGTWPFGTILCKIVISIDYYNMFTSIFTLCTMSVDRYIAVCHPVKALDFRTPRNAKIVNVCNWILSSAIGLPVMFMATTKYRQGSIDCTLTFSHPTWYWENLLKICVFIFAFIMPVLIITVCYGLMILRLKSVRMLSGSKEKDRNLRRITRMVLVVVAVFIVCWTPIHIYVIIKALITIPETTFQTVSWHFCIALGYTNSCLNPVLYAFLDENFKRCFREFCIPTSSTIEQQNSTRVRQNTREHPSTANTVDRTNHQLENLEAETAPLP
compound,measurement,setting,value
COc1ccc(C2SCCN2S(=O)(=O)c2ccc(Br)cc2)cc1 (stereo not drawn) [Analog 9],pEC50,[1],5.15
same,Description (PAM efficacy class / SAM),[2],Moderate PAM
"C[C@@H](NC(=O)[C@@H](N)Cc1ccc(O)cc1)C(=O)NCC(=O)N(C)[C@@H](Cc1ccccc1)C(=O)NCCO [DAMGO, reference compound]",stimulation of [35S]GTPγS binding above basal activity,"[3]; C6mu membranes, 10 uM DAMGO, 5 min",250%
same,Emax,"[3]; read-out: maximal stimulation by DAMGO, control",232%
COc1ccc(C2SCCN2S(=O)(=O)c2ccc(Cl)cc2)cc1Br (stereo not drawn) [BMS-986122],"β-arrestin recruitment, agonist detection mode",[4],Neither compound had any significant effect
same,"β-arrestin recruitment, PAM detection mode",[4],Neither compound had any significant effect
same,effect of modulator on maximal stimulation by DAMGO,[3]; [12],not affected
same,increase in morphine potency,[3]; [12],3 fold
same,leftward shift in DAMGO CRC (potency),[3]; [12],8 fold and 7 fold
same,agonist activity of modulator in [35S]GTPγS binding,[3]; C6mu membranes,No significant agonist activity was detected
same,agonist activity of modulator,[5],No agonist activity was observed
same,leftward shift in DAMGO potency,[5]; 10 uM modulator,4.5 fold
same,effect on basal [35S]GTPγS binding,"[5]; 10 uM modulator, basal 4.8±0.4 fmol bound/mg protein",not affected
same,effect on [3H]diprenorphine binding affinity,[6],no significant effect; also recorded: did not affect; also recorded: had no effect
same,increase in the affinity of DAMGO,[7],6 fold
same,Emax,[8],79%
same,pEC50,[1],5.52 and 5.31
same,pEC50,[9],5.05
same,Description (PAM efficacy class / SAM),[2],Full PAM (ref)
same,"β-arrestin recruitment, agonist detection mode (compound alone)",[2],Neither BMS-986121 nor BMS-986122 produced significant β-arrestin recruitment on their own
same,pEC50,"[10]; EC50 of agonist activity (agonist detection mode), CHO-mu, no orthosteric agonist",4.39
same,Emax,[10]; read-out: Emax of agonist activity (agonist detection mode),60%
COc1cc(Br)ccc1C1SCCN1S(=O)(=O)c1ccc(Cl)cc1 (racemic) [BMS-986124],"β-arrestin recruitment, agonist detection mode",[4],no activity
same,"β-arrestin recruitment, PAM detection mode",[4],no activity
same,effect on DAMGO potency in [35S]GTPγS assay,[3]; [12],not significantly increased
same,effect on morphine Emax in [35S]GTPγS assay,[3]; [12],increased morphine Emax to a small degree
same,effect on morphine potency in [35S]GTPγS assay,[3]; [12],not significantly increased
same,effect on DAMGO-stimulated [35S]GTPγS binding potency,"[3]; C6mu membranes, 50 uM BMS-986124 alone",not affected
same,agonist activity of modulator in [35S]GTPγS binding,[3]; C6mu membranes,No significant agonist activity was detected
same,antagonist/NAM detection mode: effect on EC80 endomorphin-I response,"[2]; U2OS-OPRM1, 300 nM endomorphin-I",no significant effect; also recorded: Neither compound significantly inhibited; also recorded: no NAM/antagonist activity
same,SAM detection mode: inhibition of BMS-986122 PAM response,"[2]; U2OS-OPRM1, 12.5 uM (~EC80) BMS-986122 plus 30 nM (~EC20) endomorphin-I",able to inhibit the PAM response; also recorded: inhibited PAM responses
same,Description (PAM efficacy class / SAM),[2],SAM
same,"β-arrestin recruitment, agonist detection mode (compound alone)",[2],no activity
same,Kb,"[2]; read-out: β-arrestin SAM Detection Mode (Kb), U2OS-OPRM1, inhibition of BMS-986122 (~EC80) response with ~EC20 endomorphin-I, Kb calculated from IC50",2 µM
endomorphin-I [reference compound],reduction in forskolin-stimulated cAMP accumulation,"[10]; CHO-mu, 1 uM forskolin",17 fold
same,potency in cAMP assay (CHO) relative to arrestin recruitment (U2OS PathHunter),[10]; cAMP inhibition vs β-arrestin recruitment,~1000 fold
COc1ccc(C2SCCN2S(=O)(=O)c2ccc(C)cc2)cc1Br (stereo not drawn) [Analog 2],pEC50,[1],5.40
same,Description (PAM efficacy class / SAM),[2],Weak PAM
O=[N+]([O-])c1ccc(-c2csc(=Nc3c(Cl)cccc3Cl)[nH]2)cc1 [BMS-986121],"β-arrestin recruitment, agonist detection mode",[4],Neither compound had any significant effect
same,"β-arrestin recruitment, PAM detection mode",[4],Neither compound had any significant effect
same,effect of modulator on maximal stimulation by DAMGO,[3]; [12],not affected
same,increase in morphine potency,[3]; [12],2.5 fold
same,leftward shift in DAMGO CRC (potency),[3]; [12],4 fold
same,agonist activity of modulator in [35S]GTPγS binding,[3]; C6mu membranes,No significant agonist activity was detected
same,pEC50,[8],6.00 and 5.77
same,Emax,[8],72%
same,pEC50,[11],5.66
same,"β-arrestin recruitment, agonist detection mode (compound alone)",[2],Neither BMS-986121 nor BMS-986122 produced significant β-arrestin recruitment on their own
same,leftward shift in potency of endomorphin-I,"[10]; CHO-mu, 100 uM modulator",4 fold and 4.3 fold
same,leftward shift in potency of leu-enkephalin,"[10]; CHO-mu, 100 uM modulator",4.5 fold
same,leftward shift in potency of morphine,"[10]; CHO-mu, 100 uM modulator",6.5 fold
same,Emax of agonist activity (agonist detection mode),"[10]; CHO-mu, no orthosteric agonist, 100% = 10 nM endomorphin-I",35 (6-63) %
same,pEC50,"[10]; read-out: EC50 of agonist activity (agonist detection mode), CHO-mu, no orthosteric agonist",4.85
COc1ccc(C2SCCN2S(=O)(=O)c2ccc(Cl)cc2)cc1[N+](=O)[O-] (stereo not drawn) [Analog 5],pEC50,[1],5.40
same,Description (PAM efficacy class / SAM),[2],Moderate PAM
O=S(=O)(c1ccc(Cl)cc1)N1CCSC1c1ccc(Br)cc1 (stereo not drawn) [Analog 12],pEC50,[1],5.22
same,Description (PAM efficacy class / SAM),[2],Weak PAM
COc1ccc(C2SCCN2S(=O)(=O)c2ccc([N+](=O)[O-])cc2)cc1Br (stereo not drawn) [Analog 1],pEC50,[1],5.70
same,Description (PAM efficacy class / SAM),[2],Moderate PAM
COc1ccc(S(=O)(=O)N2CCSC2c2ccc(OC)c(Br)c2)cc1 (stereo not drawn) [Analog 3],pEC50,[1],5.22
same,Description (PAM efficacy class / SAM),[2],Weak PAM
COc1ccc(C2SCCN2S(=O)(=O)c2cccc(C)c2)cc1Br (stereo not drawn) [Analog 4],pEC50,[1],5.05
same,Description (PAM efficacy class / SAM),[2],Weak PAM
COc1ccc(C2SCCN2S(=O)(=O)c2ccc(Br)cc2)cc1[N+](=O)[O-] (stereo not drawn) [Analog 6],pEC50,[1],5.70
same,Description (PAM efficacy class / SAM),[2],Moderate PAM
COc1ccc(C2SCCN2S(=O)(=O)c2ccc(OC)cc2)cc1 (stereo not drawn) [Analog 15],pEC50,[1],4.43
same,Description (PAM efficacy class / SAM),[2],Weak PAM
COc1ccc(C2SCCN2S(=O)(=O)c2ccc(Br)cc2)cc1OC (racemic) [Analog 8],pEC50,[8],4.85
same,Description (PAM efficacy class / SAM),[2],Weak PAM
O=S(=O)(c1ccc(Cl)cc1)N1CCSC1c1cccc(Cl)c1 (stereo not drawn) [Analog 11],pEC50,[1],5.30
same,Description (PAM efficacy class / SAM),[2],Strong PAM
COc1ccc(C2SCCN2S(=O)(=O)c2ccccc2)cc1 (stereo not drawn) [Analog 10],pEC50,[1],4.64
same,Description (PAM efficacy class / SAM),[2],Weak PAM
COc1ccc(S(=O)(=O)N2CCSC2c2ccc(Br)cc2)cc1 (stereo not drawn) [Analog 14],pEC50,[1],5.15
same,Description (PAM efficacy class / SAM),[2],Weak PAM
